Source: the NIST ThermoML archive (doi:10.1016/j.jct.2012.11.007)

Assay: mn = molality of the nth substance listed, in mol/kg
Conditions: 101 kPa, Liquid; for mass density: Vibrating tube method; for speed of sound: Pulse-echo method

CCNC(=O)NCC [1,3-diethylurea] + O
Conditions	mass density, 288.15 K [kg/m3]	mass density, 293.15 K [kg/m3]	mass density, 298.15 K [kg/m3]	mass density, 303.15 K [kg/m3]	mass density, 308.15 K [kg/m3]	speed of sound, 298.15 K [m/s]
m1 = 0.06282	999.298	998.383	997.207	995.788	994.155	1501.8
m1 = 0.1269	999.524	998.589	997.392	995.959	994.306	1507
m1 = 0.1909	999.768	998.812	997.588	996.14	994.468	1512.1
m1 = 0.2561	1000.03	999.043	997.793	996.313	994.634	1517.2
m1 = 0.3224	1000.31	999.289	998.012	996.517	994.82	1522.3

CNC(=O)NC [1,3-dimethylurea] + O
Conditions	mass density, 288.15 K [kg/m3]	mass density, 293.15 K [kg/m3]	mass density, 298.15 K [kg/m3]	mass density, 303.15 K [kg/m3]	mass density, 308.15 K [kg/m3]	speed of sound, 298.15 K [m/s]
m1 = 0.06095	999.619	998.707	997.534	996.121	994.493	1499.8
m1 = 0.1226	1000.15	999.227	998.04	996.616	994.975	1503
m1 = 0.1846	1000.69	999.75	998.549	997.113	995.461	1506.1
m1 = 0.247	1001.24	1000.28	999.063	997.613	995.947	1509.2
m1 = 0.3099	1001.79	1000.82	999.585	998.121	996.442	1512.3

CCCCNC(N)=O [N-butylurea] + O
Conditions	mass density, 288.15 K [kg/m3]	mass density, 293.15 K [kg/m3]	mass density, 298.15 K [kg/m3]	mass density, 303.15 K [kg/m3]	mass density, 308.15 K [kg/m3]	speed of sound, 298.15 K [m/s]
m1 = 0.05745	999.477	998.55	997.366	995.939	994.3	1501.5
m1 = 0.1154	999.871	998.918	997.706	996.251	994.591	1506.3
m1 = 0.173	1000.27	999.281	998.053	996.57	994.872	1511.2
m1 = 0.2305	1000.68	999.67	998.404	996.892	995.175	1516
m1 = 0.2873	1001.11	1000.06	998.771	997.219	995.477	1520.9

CCNC(N)=O [ethylurea] + O
Conditions	mass density, 288.15 K [kg/m3]	mass density, 293.15 K [kg/m3]	mass density, 298.15 K [kg/m3]	mass density, 303.15 K [kg/m3]	mass density, 308.15 K [kg/m3]	speed of sound, 298.15 K [m/s]
m1 = 0.06285	999.725	998.807	997.629	996.213	994.58	1500
m1 = 0.1203	1000.29	999.358	998.163	996.73	995.083	1503.1
m1 = 0.179	1000.88	999.919	998.707	997.258	995.602	1506.2
m1 = 0.2358	1001.44	1000.47	999.234	997.769	996.09	1509.1
m1 = 0.3016	1002.09	1001.09	999.839	998.357	996.661	1512.5

CNC(N)=O [methylurea] + O
Conditions	mass density, 288.15 K [kg/m3]	mass density, 293.15 K [kg/m3]	mass density, 298.15 K [kg/m3]	mass density, 303.15 K [kg/m3]	mass density, 308.15 K [kg/m3]	speed of sound, 298.15 K [m/s]
m1 = 0.06094	999.856	998.94	997.762	996.348	994.718	1499.1
m1 = 0.1225	1000.62	999.688	998.491	997.062	995.418	1501.5
m1 = 0.1837	1001.38	1000.42	999.21	997.766	996.108	1503.9
m1 = 0.2452	1002.13	1001.16	999.928	998.469	996.799	1506.3
m1 = 0.3076	1002.89	1001.9	1000.66	999.182	997.498	1508.7

NC(N)=O [urea] + O
Conditions	mass density, 288.15 K [kg/m3]	mass density, 293.15 K [kg/m3]	mass density, 298.15 K [kg/m3]	mass density, 303.15 K [kg/m3]	mass density, 308.15 K [kg/m3]	speed of sound, 298.15 K [m/s]
m1 = 0.06521	1000.18	999.268	998.076	996.664	995.029	1498.5
m1 = 0.1233	1001.14	1000.2	998.994	997.564	995.915	1500
m1 = 0.1812	1002.09	1001.13	999.906	998.455	996.792	1501.5
m1 = 0.2403	1003.05	1002.07	1000.83	999.361	997.684	1503.1
m1 = 0.3004	1004.03	1003.02	1001.76	1000.28	998.584	1504.6
